Test in all cases: Inhibition-zone assay (CL)
What all share (format): cell-based

Assay [1] has as its system Bacillus megaterium CGMCC 1.0459. Conditions: BM CGMCC 1.0459, N.A. = no activity at 0.8 nmol peptide each well. The protocol:
(§1) The antimicrobial activity of seven peptides, including MeuFSPL-1, MeuFSPL-2, Marmelittin, Melittin, Meucin-22, Marcin-22, and MeuTXKβ1, was evaluated by the inhibition-zone assay previously described in our studies (Hultmark, [1998]; Zhu et al., [2012a]; Zhu and Gao, [2014]). Temperatures used were 30 or 37°C for bacteria or 28°C for fungi. Media used were Luria-Bertani (LB) Broth (10 g tryptone, 5 g yeast extract, and 5 g NaCl in 1 l of water) or Nutrient Broth (10 g peptone, 5 g beef extract powder, and 5 g NaCl in 1 l of water) or GYM(Isp2) (4 g yeast extract, 10 g malt extract, 4 g glucose, 2 g CaCO3 in 1 l of water) for bacteria or Potato Dextrose Broth (200 g patato and 20 g glucose in 1 l of water) for fungi. To make plates, 10 μl of microbial culture (~2 × 10^6 bacterial cells or fungal spores/ml) were mixed in 6 ml of medium containing 0.8% agar and poured into Peri dishes of 9.0 cm diameter. Wells with a diameter of 2 mm were punched into the medium, filled with 2 μl of sample each well. In this assay, three different doses of peptides were applied to three independent wells in one standard bacterial plate. After incubation overnight, inhibition zones were measured and used to calculate lethal concentrations (CL), a concentration just sufficient to inhibit bacterial growth (Hultmark, [1998]; Gao et al., [2009]). CL values are calculated from a plot of d^2 against log n, where d is the diameter (in cm) and n is the amount of sample applied in the well (in nmol). The plot is linear and thus CL can be calculated from the slope (k) and the intercept (m) of this plot. The formula used here is CL = 2.93/ak10^m/k, where “a” is the thickness of the bacterial plate and “CL” is in μM.

Assay [2] relates to Bacillus subtilis CGMCC 1.2428. Conditions: BS CGMCC 1.2428, N.A. = no activity at 0.8 nmol peptide each well. As to the method: as §1
Assay [3] relates to Escherichia coli ATCC 25922. Conditions: EC ATCC 25922, N.A. = no activity at 0.8 nmol peptide each well. The protocol: as §1
The subject of assay [4] is Escherichia coli Am. J16c. To be noted: EC Am. J16c, N.A. = no activity at 0.8 nmol peptide each well. As to the method: as §1
In assay [5] the test system is Escherichia coli Am. J23a. Conditions: EC Am. J23a, N.A. = no activity at 0.8 nmol peptide each well. As to the method:
as §1

Assay [6] relates to Escherichia coli CIP. J14b. To be noted: EC CIP. J14b, N.A. = no activity at 0.8 nmol peptide each well. The protocol: as §1
The test system of assay [7] is Escherichia coli D. G2b. Conditions: EC D. G2b, N.A. = no activity at 0.8 nmol peptide each well. The protocol: as §1
In assay [8] the test system is Micrococcus luteus CGMCC 1.0290. To be noted: ML CGMCC 1.0290, N.A. = no activity at 0.8 nmol peptide each well. As to the method:
as §1

Assay [9] deals with Staphylococcus aureus J685. To be noted: SA J685, N.A. = no activity at 0.8 nmol peptide each well. The protocol:
as §1

Assay [10] has as its system Staphylococcus aureus J698. Conditions: SA J698, N.A. = no activity at 0.8 nmol peptide each well. The protocol: as §1
In assay [11] the test system is Staphylococcus aureus J700. To be noted: SA J700, N.A. = no activity at 0.8 nmol peptide each well. The protocol:
as §1

Assay [12] concerns Staphylococcus warneri ATCC 1.2824. Conditions: SW ATCC 1.2824, N.A. = no activity at 0.8 nmol peptide each well. As to the method: as §1
For assay [13], the system named is Stenotrophomonas maltophilia CGMCC 1.1788. To be noted: SMAL CGMCC 1.1788, N.A. = no activity at 0.8 nmol peptide each well. As to the method:
as §1

For assay [14], the system named is Streptococcus mutans ATCC 1.2499. To be noted: SM ATCC 1.2499, N.A. = no activity at 0.8 nmol peptide each well. The protocol: as §1
Assay [15] has as its system Streptococcus salivarius ATCC 1.2498. Conditions: SSAL ATCC 1.2498, N.A. = no activity at 0.8 nmol peptide each well. As to the method: as §1
The test system of assay [16] is Streptococcus sanguinis ATCC 1.2497. Conditions: SSAN ATCC 1.2497, N.A. = no activity at 0.8 nmol peptide each well. As to the method:
as §1

Assay [17] relates to methicillin-resistant Staphylococcus aureus P1374. To be noted: MRSA P1374, N.A. = no activity at 0.8 nmol peptide each well. As to the method:
as §1

Assay [18] relates to methicillin-resistant Staphylococcus aureus P1386. To be noted: MRSA P1386, N.A. = no activity at 0.8 nmol peptide each well. As to the method:
as §1

Assay [19] deals with methicillin-resistant coagulase-negative Staphylococcus P1369. Conditions: MRCNS P1369, N.A. = no activity at 0.8 nmol peptide each well. The protocol:
as §1

Assay [20] has as its system methicillin-sensitive Staphylococcus aureus CGMCC 1.89. Conditions: MSSA CGMCC 1.89, N.A. = no activity at 0.8 nmol peptide each well. The protocol:
as §1

Assay [21] concerns penicillin-resistant Staphylococcus aureus P1383. To be noted: PRSA P1383; inhibition-zone assay; N.A. = no activity at 0.8 nmol peptide each well. As to the method:
as §1

The test system of assay [22] is penicillin-resistant Staphylococcus epidermidis P1389. Conditions: PRSE P1389, N.A. = no activity at 0.8 nmol peptide each well. The protocol:
as §1

The subject of assay [23] is penicillin-sensitive Staphylococcus epidermidis P1111. Conditions: PSSE P1111, N.A. = no activity at 0.8 nmol peptide each well. As to the method: as §1

Ends that are not written are not given here.

Consider FFGHLFKLATKIIPSFFRRKNQ [MAC-22], for which the “Lethal concentration (CL)” value in [1] was 1.35 µM; in assay [2], 2.11 µM; in assay [3], 10.69 µM; in assay [4] it was 15.15 µM; in assay [5] it was 12.70 µM; in [6], 12.03 µM. For the same molecule, the “Lethal concentration (CL)” value in [7] was 12.95 µM; in assay [8], 2.58 µM; in assay [9], 2.39 µM; in assay [10], 2.39 µM; in assay [11], 2.39 µM; in [12] it was 4.45 µM. In addition, the “Lethal concentration (CL)” value in [13] stood at 6.78 µM; in assay [14], 4.22 µM; in assay [15], 4.22 µM; in [16], 9.12 µM; in assay [17] it was 1.35 µM; in [18] it was 1.35 µM. For the same molecule, the “Lethal concentration (CL)” value in assay [19] worked out at 1.35 µM; in [20] it was 1.35 µM; in assay [21], 2.11 µM; in assay [22], 3.72 µM; in assay [23] it was 1.35 µM.

Consider “FFGHLFKLATKIIPSLFQ [MUC-18, reference compound]”, for which the “Lethal concentration (CL)” value in [2] was 2.11 µM; in assay [4], 22.72 µM; in assay [5], 22.72 µM; in [6], 22.72 µM; in assay [7], 37.28 µM; in assay [9], 8.71 µM. Moreover, the “Lethal concentration (CL)” value in assay [10] was determined as 5.16 µM; in [11] it was 6.86 µM; in assay [12], 11.69 µM; in [13], 13.72 µM; in [14], 9.32 µM; in assay [15], 9.24 µM. The “Lethal concentration (CL)” value in assay [16] worked out at 13.72 µM; in assay [17], 3.35 µM; in assay [18], 1.35 µM; in [19], 4.89 µM; in assay [20] it was 0.87 µM; in assay [21] it was 3.72 µM. Moreover, the “Lethal concentration (CL)” value in assay [22] worked out at 3.35 µM; in [23], 0.87 µM.

Regarding `CC[C@H](C)[C@H](NC(=O)CN)C(=O)NCC(=O)N[C@@H](C)C(=O)N[C@H](C(=O)N[C@@H](CC(C)C)C(=O)N[C@@H](CCCCN)C(=O)N[C@H](C(=O)N[C@@H](CC(C)C)C(=O)N[C@H](C(=O)N[C@H](C(=O)NCC(=O)N[C@@H](CC(C)C)C(=O)N1CCC[C@H]1C(=O)N[C@@H](C)C(=O)N[C@@H](CC(C)C)C(=O)N[C@H](C(=O)N[C@@H](CO)C(=O)N[C@@H](Cc1c[nH]c2ccccc12)C(=O)N[C@H](C(=O)N[C@@H](CCCCN)C(=O)N[C@@H](CCCNC(=N)N)C(=O)N[C@@H](CCCCN)C(=O)N[C@@H](CCCNC(=N)N)C(=O)N[C@@H](CCC(N)=O)C(=O)N[C@@H](CCC(N)=O)C(N)=O)[C@@H](C)CC)[C@@H](C)CC)[C@@H](C)O)[C@@H](C)O)C(C)C)C(C)C` [Melittin, reference compound], the “Lethal concentration (CL)” value in assay [1] is 11.6 µM; in assay [2] it was 9.2 µM; in assay [3] it was 14.4 µM; in assay [4], 24.54 µM; in assay [5] it was 18.20 µM; in assay [6], 18.20 µM. Moreover, the “Lethal concentration (CL)” value in [7] was found to be 18.20 µM; in [8], 7.5 µM; in assay [9] it was 13.70 µM; in assay [10] it was 12.08 µM; in assay [11], 12.08 µM; in assay [12] it was 1.37 µM. For the same molecule, the “Lethal concentration (CL)” value in assay [13] came to 18.72 µM; in assay [14], 9.37 µM; in [15], 18.20 µM; in assay [16], 16.41 µM; in assay [17], 11.6 µM; in [18], 9.3 µM. The “Lethal concentration (CL)” value was 9.3 µM in assay [19]; 7.9 µM in [20]; 9.1 µM in assay [21]; 9.1 µM in assay [22]; 13.4 µM in [23].

In the case of FFGHLFKLATKIIPSLFQRKKE [MUC-22], the “Lethal concentration (CL)” value in assay [1] was determined as 3.72 µM; in assay [2] it was 1.86 µM; in assay [3], 7.95 µM; in assay [4] it was 7.49 µM; in [5], 7.36 µM; in assay [6], 11.65 µM. In addition, the “Lethal concentration (CL)” value stood at 9.93 µM in assay [7]; 2.71 µM in assay [8]; 2.66 µM in assay [9]; 2.66 µM in assay [10]; 2.66 µM in assay [11]; 3.76 µM in assay [12]. The “Lethal concentration (CL)” value amounted to 3.79 µM in assay [13]; 2.39 µM in [14]; 4.22 µM in [15]; 3.37 µM in assay [16]; 0.87 µM in [17]; 1.88 µM in assay [18]. For the same molecule, the “Lethal concentration (CL)” value in assay [19] amounted to 2.21 µM; in assay [20], 1.35 µM; in [21], 0.87 µM; in [22] it was 0.56 µM; in [23] it was 1.61 µM.

These data come from publication PMC5863496, “Mesobuthus Venom-Derived Antimicrobial Peptides Possess Intrinsic Multifunctionality and Differential Potential as Drugs” (Frontiers in Microbiology, 2018).
